# Measured values taken from patent US6630481B2, “Viologen linked acridine based molecule and process for the preparation thereof” (Council of Scientific and Industrial Research of India, priority 2001, dated 2003).
# Key:
# calf thymus DNA = assay: DNA binding affinity (association constants) by absorption and fluorescence; settings: buffer containing 1 mM EDTA
# Protocol: DNA binding efficiency. DNA binding affinities of acridine-viologen bifunctional molecules represented by compound of formula 1a and 1d were analyzed using calf thymus DNA, in NaCl buffer at different salt concentrations (2 mM and 100 mM). Test solutions containing different concentrations of calf thymus DNA in NaCl buffer were incubated at room temperature for one hour to complete the complexation and were analyzed using absorption and fluorescence techniques. […] The binding constants of viologen linked acridines with DNA were determined according to the reported procedures. References may be made to Peacocke, A. R.; Skerrett, J. N. H. Trans. Faraday Soc. 1956, 52, 261; McGhee, J. D.; von Hippel, P. H. J. Mol. Biol. 1974, 86, 469; Scatchard, G. Ann. N.Y. Acad. Sci 1949, 51, 660; Adam, W.; Cadet, J.; Dall'Acqua, F.; Epe, B.; Ramaiah, D.; Saha-Moller, C. R. Angew. Chem. Int. Ed. Engl. 1995, 34, 107). […] Further fluorescence lifetimes of these compounds were also examined in presence and absence of DNA.
# PM2 DNA = assay: DNA relaxation assay: photoactivated cleavage of plasmid DNA with repair endonucleases; assay type: biochemical; settings: 360 nm light; for damage sensitive to FPG protein with increase in the time of irradiation: 0° C., FIG. 5 and FIG. 6; for generation of single strand breaks (SSB) with irradiation time: irradiation for 30 min
# Source text: Cleavage of plasmid DNA was followed by monitoring the conversion of supercoiled (Form I) to open circular relaxed (Form II) and linear (Form III). Plasmid DNA cleavage is a very sensitive technique and when combined with several repair endonucleases, it can serve as a kind of fingerprint of the species directly responsible for the damage. Induction of one single strand break (SSB) by a compound converts Form I to Form II and the quantification of which indicates its efficiency of DNA cleavage. A DNA relaxation assay was used to quantify SSB and endonuclease-sensitive modifications (Epe, B.; Helger, J.; Wild, D. Carcinogenesis 1989, 10, 2019 and Epe, B.; Mftzel, P.; Adam, W. Chem. Biol. Interactions 1988, 67, 149). This assay makes use of the fact that Form I when converted by either a single strand break (SSB) or the incision by a repair endonuclease leads to Form II, which migrates separately in agarose gel electrophoresis.
# Phosphate-buffered (pH 7.0), air-saturated solutions of PM2 DNA (10 μg/mL) at 0° C. were irradiated with 360 nm near-UV irradiation in the presence of various concentrations of acridine-viologen bifunctional molecules represented by compound of formula 1a and 1b (wherein Y=—(CH2)n, wherein n=1-11; R=—MV^2+—(CH2)m—CH32X^⊖ or —Pyr^2+—(CH2)m—CH32X^⊖ and wherein Y=—(CH2)n, wherein n=1-11; R=—MV^2+—(CH2)m—Acr2X^⊖ or —Pyr^2+—(CH2)m—Acr2X^⊖ respectively). Subsequently, the DNA was analyzed for the following types of modifications: (i) DNA single and double strand breaks; (ii) sites of base loss (AP sites) recognized by exonuclease III; (iii) base modifications plus AP sites sensitive to the T4 endonuclease V; (iv) base modifications plus AP sites sensitive to the endonuclease III and (v) base modifications plus AP sites sensitive to formamidopyrimidine-DNA glycosylase (FPG protein).
Compound,K (DNA association constant) (calf thymus DNA; 2 mM NaCl) [M⁻¹],K (DNA association constant) (calf thymus DNA; 100 mM NaCl) [M⁻¹],damage sensitive to FPG protein with increase in the time of irradiation (PM2 DNA),generation of single strand breaks (SSB) with irradiation time (PM2 DNA)
"CCCC[n+]1ccc(-c2cc[n+](CCCCCCCCCCCc3c4ccccc4nc4ccccc34)cc2)cc1.[Br-].[Br-] [1-[11-(acridin-9-yl)undecyl]-1′-butyl-4,4′-bipyridinium dibromide]",5.24e+06,164000,increases,No significant increase
"CCCC[n+]1ccc(-c2cc[n+](Cc3c4ccccc4nc4ccccc34)cc2)cc1.[Br-].[Br-] [1-[(acridin-9-yl)methyl]-1′-butyl-4,4′-bipyridinium dibromide]",924000,101000,increases,No significant increase
"bis-1,1′-[(acridin-9-yl)methyl]-4,4′-bipyridinium dibromide",1.3e+06,390000,,
